According to patent US7109175B1, “Specific steady-state R-type CA2+ channel blockers and use thereof” (Universite de Sherbrooke, priority 2000, dated 2006):
Entries after “also recorded” stand apart in the source; their conditions may differ.

Tests used:
R-type Ca^2+ channel [1] = test: Fura-2 [Ca]i, freshly isolated human aortic endothelial cells; format: cell-based; conditions: 10^−9M
Source text: This sustained increase of Ca^2+ induced by depolarization of the cell membrane or hormones such as PAF, ET-1 and bradykinin is due to the increase of Ca^2+ influx through the R-type Ca^2+ channels at the sarcolemmal membrane and/or the nuclear membrane (Bkaily G., 1994, supra; 1996, supra; 1997a–d, supra). Using Ca^2+ fluorescence probes Fura-2 or Fluo-3 and 2 and three-dimension Ca^2+ imaging techniques (Bkaily G., 1994, supra; 1996, supra; 1997a–d, supra), the effect of hormones and drugs could be easily tested. These two methods are used with single cells of different types as described above.
(§1) In another series of experiments we tested the effect of MV8608 (10^−9M) on R-type Ca^2+ channels stimulation-induced sustained increase of total intracellular Ca^2+ by sustained depolarization (FIGS. 15 to 19), by PAF (10^−9M) (FIGS. 16 to 19 and 21 to 22), by ET-1 (10^−9M) (FIGS. 16 and 19) and bradykinin (BK, 10^−6M) (FIGS. 20 and 21), in embryonic chick heart cells (FIGS. 15, 16, 19 and 20), 19-week-old human fetal heart cells (FIGS. 15, 17, 18 and 20), rabbit aortic vascular smooth muscle (VSM) cells (FIGS. 20 and 21), human aortic VSM cell-line (FIG. 23) and freshly isolated (FIG. 22) as well as in freshly isolated aortic endothelial cells (FIG. 22).

T-type Ca^2+ current = test: Whole-cell voltage clamp, T-type Ca2+ current in heart cells; format: cell-based
Procedure: Single cells of different types in culture were prepared from biopsies of human, chick and rabbit. Known and accepted methods for the isolation of fast Na^+ current, T, L and R-type Ca^2+ channels as well as delayed outward K^+ current were used (Bkaily 1994, supra).
The compounds to be tested are added to the appropriate extracellular solution after recording a stable ionic current or normal steady-state level of […]. The effect of different concentrations of compounds are tested on the different type of current and [Ca]i of the different cell types. The effect of each concentration of the compounds in function of the time of exposure are then determined. Once the steady-state effect is reached, the second concentration is added, etc.
In another series of experiments (n=7), the effect of different concentrations of MV8608 were tested on the T-type Ca^2+ current (ICa) using the whole-cell voltage clamp technique and classical experimental conditions described elsewhere by the inventors (Bkaily G. et al., 1991, supra; 1992, supra; 1993, supra). […] As it can be seen in that figure, the inset effect of MV8608 in T-type ICa is immediate.

R-type Ca^2+ channel [2] = test: Fura-2 [Ca]i, human fetal heart cells; format: cell-based; conditions: 10^−9M, KCl 30 mM, PAF 10^−9M
Source text: These two methods are used with single cells of different types as described above.
as §1

pleurisy in mice = test: Murine model of pleurisy; format: in vivo; conditions: for neutrophil cells, carrageenan pleurisy / total cells, carrageenan pleurisy: MV 8612 30 and 60, MV 8608 30, i.p.
Procedure: To assess further the anti-inflammatory action of MV 8612 and MV 8608, their effects against the inflammatory responses caused by several mediators of inflammation in a murine model of pleurisy were tested (Saleh et al., 1996, Br. J. Pharmacol. 118:811–819). In addition, both compounds were tested against the increase of vascular permeability caused by bradykinin in the rat skin (Neves et al., 1993b, Phytotherapy Research. 7:356–362).

[3] = test system: PAF-induced arterial vasodilatation and venconstriction; test: Double-perfused mesenteric bed of the rat
Source text: The inhibitory properties of MV8608 are specific for PAF as the response to ACh (arterial) and AngII (venous) are unaffected by the pregnane-containing moiety.

[4] = test system: contraction of rat uterus induced by BK; conditions: Calixto et al. 1987; cited from earlier work
anaesthetized guinea pig = test: Anaesthetized guinea pig, PAF bronchoconstriction and hypotension; format: in vivo
Source text: (§2) On the other hand, in vivo administered PAF, induced a marked hypotension in the anaesthetized rat and guinea pig.

anaesthetized rat = test: Anaesthetized rat, blood pressure and PAF hypotension; format: in vivo; conditions: anaesthetized rat
Source text: as §2

tail-flick = test: Tail-flick in mice; format: in vivo; conditions: i.p.

Row | Structure (SMILES) | basal [Ca]i (R-type Ca^2+ channel [1]) | overall effect on T-type ICa (T-type Ca^2+ current; 10^−9M and 10^−7M, heart cells) | effect on T-type ICa amplitude (T-type Ca^2+ current; 10^−9M to 10^−7M, n=7) | sustained increase of [Ca]i (R-type Ca^2+ channel [2]) | mononuclear cells influx, PAF pleurisy (pleurisy in mice; 30, i.p.) | plasma extravasation, PAF pleurisy (pleurisy in mice; 30, i.p.) | neutrophil cells, carrageenan pleurisy (pleurisy in mice) | total cells, carrageenan pleurisy (pleurisy in mice) | response to ACh (arterial) and AngII (venous) [3] | PAF-induced responses (arterial vasodilatation, venconstriction) ([3]; 1 μM in FIG. 24) | inhibition of BK-induced contraction of rat uterus [4] | intrinsic hypotensive effect (anaesthetized guinea pig; guinea pig) | bronchoconstrictive responses to PAF (anaesthetized guinea pig; pretreatment) | hypotensive effects of PAF (anaesthetized guinea pig; pretreatment) | hypotensive effect of PAF after withdrawal of treatment (anaesthetized guinea pig; same animal) | hypotensive effect of PAF (anaesthetized rat) | ID50 TAIL-FLICK (tail-flick) | plasma extravasation, carrageenan pleurisy (pleurisy in mice; 30 and 60, i.p., 1 h prior) | inflammatory response caused by PAF acether (pleurisy in mice; same range of dose, i.p.)
1 | C[C@]12CC[C@H](O)CC1=CC[C@@H]1[C@@H]2CC[C@]2(C)[C@H]3[C@@H]4OC[C@H]3O[C@@H](O)[C@]12O4 [MV8608, (15R, 16R, 20S)-14, 16:15,20:16,21-triepoxi-15,16-seco 14β, 17α-pregn-5-ene-3β, 15-diol] | decrease of basal sustained increase of [Ca]i | very weak depressor; also recorded: relative weak depressing effect | had no effect | blockade | antagonised significantly | antagonised significantly | inhibited significantly | inhibited significantly | unaffected | concentration-dependent inhibition; also recorded: blocked PAF | selective in its ability to inhibit the contraction of rat uterus induced by BK | – | – | – | – | – | – | – | –
2 | COC1CC(OC2C(C)OC(O[C@H]3CC[C@@]4(C)C(=CC[C@@H]5[C@@H]4CC[C@]4(C)[C@H]6[C@@H]7OC[C@H]6O[C@@H](O)[C@]54O7)C3)CC2OC)OC(C)C1OC1CC(OC)C(OC2CC(OC)C(OC3OC(C)C(OC(C)=O)C(OC)C3OC(C)=O)C(C)O2)C(C)O1 (stereo partly drawn) [MV8612] | – | – | – | – | – | – | significantly inhibited | significantly inhibited | – | – | – | devoid of marked intrinsic effect | abolishes | very significantly reduced; also recorded: abolishes | fully restored | Identical inhibition | no effect | significantly inhibited | did not affect significantly
